Experimental data from a melting point compilation (Tetko et al.).

Structure (SMILES)	melting point [°C]
CN1C(=O)Cc2cc(S)ccc21	104 to 106
Cc1ccncc1-n1ccnc1	64 to 66
CCOc1cc(C(=O)O)cc(Br)c1OC	182 to 184
N#CCC(=O)c1ccc(F)cc1	84 to 88
Cn1ccnc1C(O)(CC(=O)O)C(F)(F)F (stereo not drawn)	186 to 188
COc1ccccc1-c1cc(C(=O)O)c2c(C)noc2n1	229 to 231
O=C(O)c1ccccc1COc1ccccc1	126 to 128
O=c1[nH]c2c(s1)CCC2	142 to 144
c1cnc2c(c1)NCCC2	103 to 105
CCOc1ccccc1C(=O)N1CCNCC1	82 to 84
CC(Cl)C(=O)Nc1cccc(Cl)c1 (stereo not drawn)	98 to 100
Fc1ccc(NC(=NC2CC2)c2ccccc2)cc1	92 to 94
O=C(CCCc1ccc(Br)cc1)c1ccccc1	84 to 86
CC(C)(C)OC(=O)NCc1nnn[nH]1	153 to 155
CC(=O)Nc1sc2c(c1C(=O)O)CCCC2	210 to 212
Cc1cc(-c2noc(CCC(=O)O)n2)ccc1F	124 to 126
O=C(CCl)Nc1ccc(OCc2ccccc2)cc1	118 to 120
Cc1nc(-c2cc(C(=O)O)cs2)cs1	226 to 228
CCOc1ccc(C(=O)CBr)cc1	57 to 59
CC1Nc2ncccc2NC1=O (stereo not drawn)	272 to 274
COc1ccc(NS(=O)(=O)c2ccc(O)c(N)c2)cc1	213 to 215
CC(C)(C)OC(=O)Nc1cccc(CC(=O)O)c1	97 to 99
CC1(c2ccccc2F)NC(=O)NC1=O (stereo not drawn)	214 to 216
Cc1cccc2c(=O)[nH]c(CCl)nc12	190 to 192
O=C(NCc1cccnc1)OCC(F)(F)F	45 to 47

Structure (SMILES)	melting point [°C]
O=C(NCC(F)(F)F)c1cccc(S(=O)(=O)Cl)c1	83 to 85
CCC(C)C(C(=O)O)c1ccccc1 (stereo not drawn)	50 to 52
CC(C)(O)CN1CCNCC1	61 to 63
COc1cc(C=O)cc(Cl)c1OC(F)F	75 to 77
[N-]=[N+]=NC(C(N)=O)c1ccc(F)cc1 (stereo not drawn)	127 to 129
Cc1ccc(C(=O)CCC(=O)O)s1	99 to 101
Cc1ccc2nc(-c3ccc(N=C=S)cc3)sc2c1	243 to 245
O=C(O)c1ccc(CN2C(=O)CCC2=O)cc1	229 to 231
CC(=O)CC(=O)Nc1cccc(Br)c1	108 to 110
COc1cc(OC)c(NC(=O)c2cc3ccccc3cc2O)cc1Cl	199 to 201
O=C1C(Br)CCN1c1ccccc1 (stereo not drawn)	99 to 101
N#Cc1cccc(OC2CCNCC2)c1	52 to 54
CCOC(=O)c1cnn2c1nc(Cl)c1ccccc12	129 to 131
O=C(c1cc(Cl)ccn1)N1CCCCC1	60 to 62
Nc1cc(CC2CCCC2)no1	67 to 69
CCn1nc(C)c(C(=O)O)c1C	139 to 141
COC(=O)c1ccc(OC)cc1N	76 to 78
CC(Cn1cncn1)C(N)=S (stereo not drawn)	169 to 171
c1ccc(NCc2ccc3c(c2)OCO3)cc1	78 to 80
O=C(CCl)Nc1cc(-n2nnnc2C2CC2)ccc1F	119 to 121
NC(=O)c1cccc(C(N)=S)c1	210 to 212
Clc1nccc2ccn(Cc3ccccc3)c12	75 to 77
O=c1[nH]c(CNCC2CCCO2)nc2ccccc12 (stereo not drawn)	128 to 132
CC(C)(C#N)Cc1ccccc1	47 to 49
OCc1c[nH]c2ccc(Br)cc12	112 to 114

Structure (SMILES)	melting point [°C]
CC(Cn1ccnc1)NC(=O)C1(N)CCCC1 (stereo not drawn)	239 to 241
O=C(O)/C=C/c1ccc(-n2ccnc2)cc1	300 to 302
Nc1ncc2c(n1)CCC1(C2)OCCO1	215 to 217
COc1cc(C(=O)O)ccc1OC(C)=O	144 to 146
CC(C)OC(=O)c1ccnc(O)c1	145 to 147
Cc1[nH]ncc1CNc1ccc(O)cc1	150 to 152
Cc1cc(N2CCCC(N)C2=O)n(C)n1 (stereo not drawn)	88 to 90
COc1ccc(NC(=O)C(Cl)c2ccccc2)cc1 (stereo not drawn)	152 to 156
CC(Cl)C(=O)NCC1CCCCC1 (stereo not drawn)	83 to 85
CC(=O)N1CCc2ccccc2C1CC(=O)O (stereo not drawn)	163 to 167
O=C(O)CCc1nc(-c2ccoc2)no1	143 to 145
O=C(O)CCCC(=O)Nc1cccnc1N1CCCC1	142 to 144
COc1ccc(CCNC(=O)c2ccccc2N)cc1	80 to 82
NC(=O)c1ncn2c(C(=O)O)cc(-c3ccccc3)nc12	254 to 256
O=C(O)CCOc1ccc2ccccc2c1	66 to 68
CCOc1cc(C(=O)O)cc(-c2ccccc2)c1OC	161 to 163
Nc1c(C(=O)O)cnc2ccccc12	303 to 305
CC(NC(N)=S)c1ccccc1 (stereo not drawn)	94 to 96
O=C1CCOc2c(Br)cccc21	62 to 64
NS(=O)(=O)c1cc(C(=O)O)ccc1Br	275 to 277
CC(C)(C)NC(N)=S	171 to 175
COc1ccccc1NS(=O)(=O)c1cc(C(=O)O)ccc1Cl	176 to 178
COC(=O)CCOc1ccc(N)cc1	51 to 53
